Test results reported in ChEMBL document CHEMBL3120140, “Balgacyclamides, antiplasmodial heterocyclic peptides from Microcystis aeruguinosa EAWAG 251” (J Nat Prod, 2014).

Tests used:
L6 = assay: Cytotoxicity against rat L6 cells after 72 hrs by Alamar blue assay; format: cell-based; details: L6, 72 h
[1] = test system: Trypanosoma brucei rhodesiense; assay: Antitrypanosomal activity against Trypanosoma brucei rhodesiense STIB 900 after 72 hrs by Alamar blue assay; format: functional, organism-based; details: STIB 900, 72 h
Plasmodium falciparum = assay: Antiplasmodial activity against chloroquine-resistant Plasmodium falciparum K1 infected in human RBC after 48 hrs by [3H]-hypoxanthine incorporation assay; format: functional, organism-based
Leishmania donovani = assay: Antileishmanial activity against Leishmania donovani MHOM-ET-67/L82; format: functional, organism-based
Trypanosoma cruzi = assay: Antitrypanosomal activity against Trypanosoma cruzi Tulahuen C4; format: functional, organism-based

SMILES	IC50 (L6) [µM]	IC50 [1] [µM]	IC50 (Plasmodium falciparum) [µM]	IC50 (Leishmania donovani) [µM]	IC50 (Trypanosoma cruzi) [µM]
CC[C@H](C)[C@H]1NC(=O)[C@H]2N=C(O[C@@H]2C)[C@H](C(C)C)NC(=O)[C@H]([C@@H](C)O)NC(=O)[C@@H](C)NC(=O)c2csc1n2	> 150	51	8.2	28	> 150
CC[C@H](C)[C@H]1NC(=O)[C@H]2N=C(O[C@@H]2C)[C@H](C(C)C)NC(=O)[C@H]2N=C(O[C@@H]2C)[C@@H](C)NC(=O)c2csc1n2	> 150	59	9	> 150	> 150
